Measurements: ChEMBL document CHEMBL5724806, “Unraveling interindividual differences and functional consequences of gut microbial metabolism of immunosuppressants” (2024)

How the values were obtained:
Assay type in all cases: ADME
[1] = The drug is tested on Faecalibacterium prausnitzii strain: DSM17677 for biotransformation under anaerobic condition. The drug concentrations were measured over 6 timepoints collected between 0 and 12 hours of incubation by liquid-chromatography-coupled mass spectrometry (LC–MS); parameters: dose 5 uM, timepoint 0, 1.5, 3, 6, 9, 12 hours; settings: faecalibacterium duncaniae, 5 µM
[2] = The drug is tested on Bacteroides fragilis strain: DSM2151 for biotransformation under anaerobic condition. The drug concentrations were measured over 6 timepoints collected between 0 and 12 hours of incubation by liquid-chromatography-coupled mass spectrometry (LC–MS); parameters: dose 5 uM, timepoint 0, 1.5, 3, 6, 9, 12 hours; settings: 5 µM
[3] = The drug is tested on Bacteroides thetaiotaomicron strain: DSM2079 for biotransformation under anaerobic condition. The drug concentrations were measured over 6 timepoints collected between 0 and 12 hours of incubation by liquid-chromatography-coupled mass spectrometry (LC–MS); parameters: dose 5 uM, timepoint 0, 1.5, 3, 6, 9, 12 hours; settings: 5 µM
[4] = The drug is tested on Clostridium scindens strain: DSM5676 for biotransformation under anaerobic condition. The drug concentrations were measured over 6 timepoints collected between 0 and 12 hours of incubation by liquid-chromatography-coupled mass spectrometry (LC–MS); parameters: dose 5 uM, timepoint 0, 1.5, 3, 6, 9, 12 hours; settings: 5 µM
[5] = The drug is tested on Streptococcus salivarius strain: DSM20560 for biotransformation under anaerobic condition. The drug concentrations were measured over 6 timepoints collected between 0 and 12 hours of incubation by liquid-chromatography-coupled mass spectrometry (LC–MS); parameters: dose 5 uM, timepoint 0, 1.5, 3, 6, 9, 12 hours; settings: 5 µM
[6] = (§1) The drug is tested on the gut metagenome community of A-09 with ENA study accession number: PRJEB31790 for biotransformation under microaerobic condition. The drug concentrations were measured over 7 timepoints collected between 0 and 12 hours of incubation by liquid-chromatography-coupled mass spectrometry (LC–MS); parameters: dose 5 uM, timepoint 0, 0.75, 1.5, 3, 6, 9, 12 hours; settings: 5 µM
[7] = as §1, with “P-01” for “A-09”, “anaerobic” for “microaerobic”; parameters: dose 5 uM, timepoint 0, 0.75, 1.5, 3, 6, 9, 12 hours; settings: 5 µM
[8] = as §1, with “A-04” for “A-09”; parameters: dose 5 uM, timepoint 0, 0.75, 1.5, 3, 6, 9, 12 hours; settings: 5 µM
[9] = as §1, with “A-10” for “A-09”; parameters: dose 5 uM, timepoint 0, 0.75, 1.5, 3, 6, 9, 12 hours; settings: 5 µM
[10] = as §1, with “A-05” for “A-09”, “anaerobic” for “microaerobic”; parameters: dose 5 uM, timepoint 0, 0.75, 1.5, 3, 6, 9, 12 hours; settings: 5 µM
[11] = The drug is tested on Streptococcus mitis strain: DSM12643 for biotransformation under microaerobic condition. The drug concentrations were measured over 6 timepoints collected between 0 and 12 hours of incubation by liquid-chromatography-coupled mass spectrometry (LC–MS); parameters: dose 5 uM, timepoint 0, 1.5, 3, 6, 9, 12 hours; settings: 5 µM
[12] = The drug is tested on Lactobacillus ruminis strain: ATCC25644 for biotransformation under microaerobic condition. The drug concentrations were measured over 6 timepoints collected between 0 and 12 hours of incubation by liquid-chromatography-coupled mass spectrometry (LC–MS); parameters: dose 5 uM, timepoint 0, 1.5, 3, 6, 9, 12 hours; settings: ligilactobacillus ruminis, 5 µM
[13] = The drug is tested on Dorea formicigenerans strain: DSM3992 for biotransformation under anaerobic condition. The drug concentrations were measured over 6 timepoints collected between 0 and 12 hours of incubation by liquid-chromatography-coupled mass spectrometry (LC–MS); parameters: dose 5 uM, timepoint 0, 1.5, 3, 6, 9, 12 hours; settings: 5 µM
[14] = The drug is tested on Enterococcus faecalis strain: ATCC29212 for biotransformation under microaerobic condition. The drug concentrations were measured over 6 timepoints collected between 0 and 12 hours of incubation by liquid-chromatography-coupled mass spectrometry (LC–MS); parameters: dose 5 uM, timepoint 0, 1.5, 3, 6, 9, 12 hours; settings: 5 µM
[15] = The drug is tested on Prevotella copri strain: DSM18205 for biotransformation under anaerobic condition. The drug concentrations were measured over 6 timepoints collected between 0 and 12 hours of incubation by liquid-chromatography-coupled mass spectrometry (LC–MS); parameters: dose 5 uM, timepoint 0, 1.5, 3, 6, 9, 12 hours; settings: segatella copri, 5 µM
[16] = The drug is tested on Alloscardovia omnicolens strain: DSM21503 for biotransformation under anaerobic condition. The drug concentrations were measured over 6 timepoints collected between 0 and 12 hours of incubation by liquid-chromatography-coupled mass spectrometry (LC–MS); parameters: dose 5 uM, timepoint 0, 1.5, 3, 6, 9, 12 hours; settings: 5 µM
[17] = The drug is tested on Actinomyces graevenitzii strain: DSM15540 for biotransformation under microaerobic condition. The drug concentrations were measured over 6 timepoints collected between 0 and 12 hours of incubation by liquid-chromatography-coupled mass spectrometry (LC–MS); parameters: dose 5 uM, timepoint 0, 1.5, 3, 6, 9, 12 hours; settings: 5 µM
[18] = The drug is tested on Capnocytophaga ochracea strain: DSM7271 for biotransformation under microaerobic condition. The drug concentrations were measured over 6 timepoints collected between 0 and 12 hours of incubation by liquid-chromatography-coupled mass spectrometry (LC–MS); parameters: dose 5 uM, timepoint 0, 1.5, 3, 6, 9, 12 hours; settings: 5 µM
[19] = as §1, with “P-02” for “A-09”, “anaerobic” for “microaerobic”; parameters: dose 5 uM, timepoint 0, 0.75, 1.5, 3, 6, 9, 12 hours; settings: 5 µM
[20] = as §1, with “P-02” for “A-09”; parameters: dose 5 uM, timepoint 0, 0.75, 1.5, 3, 6, 9, 12 hours; settings: 5 µM
[21] = The drug is tested on Lactobacillus ruminis strain: ATCC25644 for biotransformation under anaerobic condition. The drug concentrations were measured over 6 timepoints collected between 0 and 12 hours of incubation by liquid-chromatography-coupled mass spectrometry (LC–MS); parameters: dose 5 uM, timepoint 0, 1.5, 3, 6, 9, 12 hours; settings: ligilactobacillus ruminis, 5 µM
[22] = as §1, with “T-05” for “A-09”, “anaerobic” for “microaerobic”; parameters: dose 5 uM, timepoint 0, 0.75, 1.5, 3, 6, 9, 12 hours; settings: 5 µM
[23] = The drug is tested on Bacteroides uniformis strain: DSM6597 for biotransformation under anaerobic condition. The drug concentrations were measured over 6 timepoints collected between 0 and 12 hours of incubation by liquid-chromatography-coupled mass spectrometry (LC–MS); parameters: dose 5 uM, timepoint 0, 1.5, 3, 6, 9, 12 hours; settings: 5 µM
[24] = as §1, with “A-01” for “A-09”, “anaerobic” for “microaerobic”; parameters: dose 5 uM, timepoint 0, 0.75, 1.5, 3, 6, 9, 12 hours; settings: 5 µM
[25] = The drug is tested on Roseburia intestinalis strain: DSM14610 for biotransformation under anaerobic condition. The drug concentrations were measured over 6 timepoints collected between 0 and 12 hours of incubation by liquid-chromatography-coupled mass spectrometry (LC–MS); parameters: dose 5 uM, timepoint 0, 1.5, 3, 6, 9, 12 hours; settings: 5 µM
[26] = The drug is tested on Enterococcus faecalis strain: ATCC29212 for biotransformation under anaerobic condition. The drug concentrations were measured over 6 timepoints collected between 0 and 12 hours of incubation by liquid-chromatography-coupled mass spectrometry (LC–MS); parameters: dose 5 uM, timepoint 0, 1.5, 3, 6, 9, 12 hours; settings: 5 µM
[27] = as §1, with “A-04” for “A-09”, “anaerobic” for “microaerobic”; parameters: dose 5 uM, timepoint 0, 0.75, 1.5, 3, 6, 9, 12 hours; settings: 5 µM
[28] = as §1, with “A-07” for “A-09”; parameters: dose 5 uM, timepoint 0, 0.75, 1.5, 3, 6, 9, 12 hours; settings: 5 µM
[29] = as §1, with “T-05” for “A-09”; parameters: dose 5 uM, timepoint 0, 0.75, 1.5, 3, 6, 9, 12 hours; settings: 5 µM
[30] = The drug is tested on Alloscardovia omnicolens strain: DSM21503 for biotransformation under microaerobic condition. The drug concentrations were measured over 6 timepoints collected between 0 and 12 hours of incubation by liquid-chromatography-coupled mass spectrometry (LC–MS); parameters: dose 5 uM, timepoint 0, 1.5, 3, 6, 9, 12 hours; settings: 5 µM

Bacterial Biotransformation [1]	Bacterial Biotransformation [2]	Bacterial Biotransformation [3]	Bacterial Biotransformation [4]	Bacterial Biotransformation [5]	Bacterial Biotransformation [6]	Bacterial Biotransformation [7]	Bacterial Biotransformation [8]	Bacterial Biotransformation [9]	Bacterial Biotransformation [10]	Bacterial Biotransformation [11]	Bacterial Biotransformation [12]	Bacterial Biotransformation [13]	Bacterial Biotransformation [14]	Bacterial Biotransformation [15]	Bacterial Biotransformation [16]	Bacterial Biotransformation [17]	Bacterial Biotransformation [18]	Bacterial Biotransformation [19]	Bacterial Biotransformation [20]	Structure (SMILES)	other results
Compound metabolized	Compound NOT metabolized	Compound NOT metabolized	Compound metabolized	Compound NOT metabolized	Compound metabolized	Compound metabolized	Compound metabolized	Compound metabolized	Compound metabolized	Compound NOT metabolized	Compound NOT metabolized	Compound NOT metabolized	Compound NOT metabolized	Compound NOT metabolized	Compound NOT metabolized	Compound NOT metabolized	Compound NOT metabolized	Compound metabolized	Compound metabolized	C[C@]12C=CC(=O)C=C1CC[C@@H]1[C@@H]2C(=O)C[C@@]2(C)[C@H]1CC[C@]2(O)C(=O)CO [PREDNISONE]	Bacterial Biotransformation [21]: Compound NOT metabolized; Bacterial Biotransformation [22]: Compound metabolized; Bacterial Biotransformation [23]: Compound NOT metabolized; Bacterial Biotransformation [24]: Compound metabolized; Bacterial Biotransformation [25]: Compound NOT metabolized; Bacterial Biotransformation [26]: Compound NOT metabolized; Bacterial Biotransformation [27]: Compound metabolized; Bacterial Biotransformation [28]: Compound metabolized; Bacterial Biotransformation [29]: Compound metabolized; Bacterial Biotransformation [30]: Compound NOT metabolized
Compound NOT metabolized	Compound NOT metabolized	Compound metabolized	Compound NOT metabolized	Compound NOT metabolized	Compound metabolized	Compound metabolized	Compound metabolized	Compound metabolized	Compound metabolized	Compound NOT metabolized	Compound NOT metabolized	Compound NOT metabolized	Compound NOT metabolized	Compound NOT metabolized	Compound NOT metabolized	Compound NOT metabolized	Compound metabolized	Compound metabolized	Compound metabolized	COc1ccc([C@@H]2Sc3ccccc3N(CCN(C)C)C(=O)[C@@H]2OC(C)=O)cc1 [DILTIAZEM]	Bacterial Biotransformation [21]: Compound NOT metabolized; Bacterial Biotransformation [22]: Compound NOT metabolized; Bacterial Biotransformation [23]: Compound metabolized; Bacterial Biotransformation [24]: Compound metabolized; Bacterial Biotransformation [25]: Compound NOT metabolized; Bacterial Biotransformation [26]: Compound NOT metabolized; Bacterial Biotransformation [27]: Compound metabolized; Bacterial Biotransformation [28]: Compound metabolized; Bacterial Biotransformation [29]: Compound metabolized; Bacterial Biotransformation [30]: Compound NOT metabolized
Compound NOT metabolized	Compound NOT metabolized	Compound NOT metabolized	Compound metabolized	Compound NOT metabolized	Compound metabolized	Compound metabolized	Compound metabolized	Compound metabolized	Compound metabolized	Compound NOT metabolized	Compound NOT metabolized	Compound NOT metabolized	Compound NOT metabolized	Compound NOT metabolized	Compound NOT metabolized	Compound NOT metabolized	Compound NOT metabolized	Compound NOT metabolized	Compound NOT metabolized	C[C@]12CCC(=O)C=C1CC[C@@H]1[C@@H]2[C@@H](O)C[C@@]2(C)[C@H]1CC[C@]2(O)C(=O)CO [HYDROCORTISONE]	Bacterial Biotransformation [21]: Compound NOT metabolized; Bacterial Biotransformation [22]: Compound metabolized; Bacterial Biotransformation [23]: Compound NOT metabolized; Bacterial Biotransformation [24]: Compound metabolized; Bacterial Biotransformation [25]: Compound NOT metabolized; Bacterial Biotransformation [26]: Compound NOT metabolized; Bacterial Biotransformation [27]: Compound metabolized; Bacterial Biotransformation [28]: Compound metabolized; Bacterial Biotransformation [29]: Compound metabolized; Bacterial Biotransformation [30]: Compound NOT metabolized
